The series in a line: In vitro integrity of tracers in buffer at physiological pH by HPLC. It counts as physicochemical. The following applies: incubated at physiological pH for up to 6 h.

Turning to ^99mTc(CO)3(PMIDA) [^99mTc-1], the “in vitro stability (decomposition by HPLC)” value is on record as “No measurable decomposition”.

These data come from paper PMC6385875 (Inorganica chimica acta, 2018).
